According to patent publication US20040033958A1, “N-alkylglycine trimeres capable of blocking the response to chemical substances, heat stimuli or mediators of neuronal receptor inflammation and compositions containing said trimeres” (priority 2000, published 2004):

How the values were obtained:
[1] = test system: irritation produced by topical capsaicin in the eye; assay: Ocular pain model: scratches after topical capsaicin in the eye of a mouse; format: in vivo; settings: scratches during 1 minute, second capsaicin application with compound vs first without
Protocol: An investigation was performed on the attenuation of the N-alkylglycine trimeres indicated in Table 1, on the irritation produced by the topical application of capsaicin in the eyes of animals, an ocular pain model (22). The experimental paradigm compares the number of scratches after the topical administration of capsaicin at 0,01% in the eye of a mouse, in the absence and presence of the N-alkylglycine trimeres. After the administration of capsaicin, the number of times the mouse scratches its treated eye during 1 minute is counted. Subsequently, the affected eye is extensively rinsed with saline solution and 15 minutes after application, the compound to be tested is administered. After 5 minutes incubation, a 0,1% capsaicin solution containing the compound to be tested is administered. The number of times the animal scratches its eye during 1 minute is immediately counted. The analgesic capacity is obtained by comparing the number of scratches in the first application of capsaicin (without the compound to be tested) and the second application of the irritant (in the presence of the compound to be tested). A decrease of scratches in the second application of capsaicin is indicative of an analgesic activity of the N-alkylglycine trimere tested.

VR1 nociceptor = VR1 nociceptor (Rattus norvegicus, UniProt O35433); assay: Blocking of capsaicin-activated ionic current in X. laevis ovocites expressing the VR1 nociceptor (two-microelectrode voltage clamp); format: cell-based; settings: activated by capsaicin 20 μM, -80 mV, read-out: concentration that inhibited half the VR1 nociceptor response (IC50)
Excerpt: This test comprises the contacting of X. laevis ovocites that express the VR1 nociceptor or glutamatergic receptors with an agonist (ligand) for said VR1 nociceptor, for example, capsaicin or L-glutamate, in the presence or absence of the compound to be tested, maintaining the transmembrane voltage constant at −80 mV, and to detect the inhibiting activity of said compound to be tested by measuring the ionic current activated by the agonist in the presence and absence of the compound to be tested. The power and efficiency of the inhibiting activity of the compound to be tested can be determined by obtaining the dose-response curves. For this, the magnitude of the ionic current blockage activated by the X. laevis ovocite agonist that express the receptors in the presence of growing concentrations of the compound to be tested, is examined. The ionic current intensities ratio, in the presence and absence of the compound to be tested, allows to obtain the dose-response curves (19, 20). These graphs meet logarithmic functions to determine the maximum blockage (power) and the antagonist concentration that is produced by half the maximum blockage (IC50 efficiency).
Briefly, the X. laevis ovocites of adult frogs are gathered, manipulated, and injected with cDNA that codes the VR1 nociceptor (5, 19). The ionic currents activated by the capsaicin agonist are recorded with the maintenance of the constant voltage technique with two microelectrodes (two-microelectrode voltage clamp) (19, 20). The ovocites that express the VR1 nociceptor are transferred to the recording chamber and perfunded using an 8-output perfusion system. […] The inhibiting activity is detected by measuring the ionic current activated by the agonist in the presence and absence of the N-alkylglycine trimeres.
The power and efficiency of the inhibitory activity of N-alkylglycine trimeres is determined by obtaining the dose-response curves. […]

[2] = biological target: NMDA receptor (NR1 and NR2A subunities) (Homo sapiens, UniProt Q05586+Q12879); assay: Blocking of L-glutamate/glycine-activated ionic current in X. laevis ovocites expressing the NMDA receptor (two-microelectrode voltage clamp); format: cell-based; settings: activated by L-glutamate/glycine 100 μM/20 μM, -80 mV, read-out: concentration that inhibited half the NMDA receptor response (IC50)
Excerpt: In order to evaluate the biological activity of the N-alkylglycine trimeres obtained in Example 1.1 on type NMDA glutamatergic receptors, a test was developed that evaluated the efficiency and power of said compounds blocking the ionic current activated by X. laevis ovocite agonist that express the type NMDA receptor, the […].
The heterologeous expression of receptors in X. laevis ovocites may be carried out according to the procedure described by Ferrer-Montiel and Montal (19). Briefly, the X. laevis ovocites of adult frogs are gathered, manipulated and injected with cRNA that codes the NR1 and NR2A subunities of the NMDA receptor (5, 20). The ionic currents activated by L-glutamate agonist in the presence of the glycine coagonist are recorded with the constant voltage maintenance technique with two microelectrodes (two-microelectrode voltage clamp) (19, 20). The ovocites that express the receptor are transferred to the recording chamber and perfunded using an 8-output perfusion system. The agonist and the coagonist, both in the absence and in the presence of the N-alkylglcycine trimeres to be tested, are dissolved in a Ringer buffer (Hepes 10 mM pH 7,4 NaCl 100 mM, Ba Cl2, 2,0 mM, KCl 3,0 mM) supplemented with 100 μM fluphenamic acid (20). This buffered solution is used to minimize the contribution of the chloride endogenous ionic channel activated by calcium to the glutamatergic receptor ionic current (19, 20). The transmembrane voltage is kept constant at −80 mV and the ionic currents are activated by applying pulses of the L-glutamate/glycine solution (100 μM /20 μM) in the presence or absence of growing concentrations of the N-alkylglycine trimeres to be tested. The inhibiting activity is detected by measuring the ionic current activated by the agonist in the presence and absence of the N-alkylglycine trimeres.
The power and efficiency of the N-alkylglycine trimeres inhibiting activity is determined by obtaining the dose-response curves. […]

Chain of NMDA receptor (NR1 and NR2A subunities) (Q12879 23-1464, other chains not shown): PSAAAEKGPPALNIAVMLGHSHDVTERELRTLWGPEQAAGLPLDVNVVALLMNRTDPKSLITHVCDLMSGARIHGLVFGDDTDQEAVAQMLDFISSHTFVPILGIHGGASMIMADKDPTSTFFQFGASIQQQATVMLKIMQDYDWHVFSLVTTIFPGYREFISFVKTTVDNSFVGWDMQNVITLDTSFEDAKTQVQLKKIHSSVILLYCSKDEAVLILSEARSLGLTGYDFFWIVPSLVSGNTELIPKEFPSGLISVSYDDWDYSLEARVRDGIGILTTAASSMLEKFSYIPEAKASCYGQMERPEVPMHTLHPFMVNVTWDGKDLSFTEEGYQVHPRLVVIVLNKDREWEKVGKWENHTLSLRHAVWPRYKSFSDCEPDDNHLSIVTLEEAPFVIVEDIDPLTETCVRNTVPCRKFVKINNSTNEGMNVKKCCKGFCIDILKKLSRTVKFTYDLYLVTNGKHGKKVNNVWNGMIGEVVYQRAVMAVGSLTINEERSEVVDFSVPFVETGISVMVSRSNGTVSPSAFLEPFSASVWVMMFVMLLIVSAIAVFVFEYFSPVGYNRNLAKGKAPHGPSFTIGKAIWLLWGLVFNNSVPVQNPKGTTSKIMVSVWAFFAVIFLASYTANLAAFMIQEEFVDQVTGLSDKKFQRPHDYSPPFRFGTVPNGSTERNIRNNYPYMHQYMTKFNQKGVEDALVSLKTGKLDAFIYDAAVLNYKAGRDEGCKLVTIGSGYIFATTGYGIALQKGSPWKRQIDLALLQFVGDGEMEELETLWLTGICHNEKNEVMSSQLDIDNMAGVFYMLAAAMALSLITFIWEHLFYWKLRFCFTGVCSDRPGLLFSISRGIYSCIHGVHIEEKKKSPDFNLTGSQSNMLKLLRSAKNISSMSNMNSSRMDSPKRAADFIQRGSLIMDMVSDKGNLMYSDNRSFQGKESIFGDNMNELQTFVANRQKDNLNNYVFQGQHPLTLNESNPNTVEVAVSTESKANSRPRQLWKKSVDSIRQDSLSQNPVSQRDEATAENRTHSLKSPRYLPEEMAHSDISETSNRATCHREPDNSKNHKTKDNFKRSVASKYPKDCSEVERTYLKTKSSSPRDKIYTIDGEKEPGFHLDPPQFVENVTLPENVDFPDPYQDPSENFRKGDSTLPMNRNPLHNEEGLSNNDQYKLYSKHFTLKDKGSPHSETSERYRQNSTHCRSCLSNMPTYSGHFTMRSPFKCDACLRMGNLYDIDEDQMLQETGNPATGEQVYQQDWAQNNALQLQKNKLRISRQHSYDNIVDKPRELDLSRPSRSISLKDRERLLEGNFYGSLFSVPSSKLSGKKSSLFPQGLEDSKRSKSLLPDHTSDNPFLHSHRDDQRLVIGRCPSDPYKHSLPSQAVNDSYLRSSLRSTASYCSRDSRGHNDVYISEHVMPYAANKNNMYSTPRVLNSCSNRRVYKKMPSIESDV
Chain of VR1 nociceptor (O35433 whole entry): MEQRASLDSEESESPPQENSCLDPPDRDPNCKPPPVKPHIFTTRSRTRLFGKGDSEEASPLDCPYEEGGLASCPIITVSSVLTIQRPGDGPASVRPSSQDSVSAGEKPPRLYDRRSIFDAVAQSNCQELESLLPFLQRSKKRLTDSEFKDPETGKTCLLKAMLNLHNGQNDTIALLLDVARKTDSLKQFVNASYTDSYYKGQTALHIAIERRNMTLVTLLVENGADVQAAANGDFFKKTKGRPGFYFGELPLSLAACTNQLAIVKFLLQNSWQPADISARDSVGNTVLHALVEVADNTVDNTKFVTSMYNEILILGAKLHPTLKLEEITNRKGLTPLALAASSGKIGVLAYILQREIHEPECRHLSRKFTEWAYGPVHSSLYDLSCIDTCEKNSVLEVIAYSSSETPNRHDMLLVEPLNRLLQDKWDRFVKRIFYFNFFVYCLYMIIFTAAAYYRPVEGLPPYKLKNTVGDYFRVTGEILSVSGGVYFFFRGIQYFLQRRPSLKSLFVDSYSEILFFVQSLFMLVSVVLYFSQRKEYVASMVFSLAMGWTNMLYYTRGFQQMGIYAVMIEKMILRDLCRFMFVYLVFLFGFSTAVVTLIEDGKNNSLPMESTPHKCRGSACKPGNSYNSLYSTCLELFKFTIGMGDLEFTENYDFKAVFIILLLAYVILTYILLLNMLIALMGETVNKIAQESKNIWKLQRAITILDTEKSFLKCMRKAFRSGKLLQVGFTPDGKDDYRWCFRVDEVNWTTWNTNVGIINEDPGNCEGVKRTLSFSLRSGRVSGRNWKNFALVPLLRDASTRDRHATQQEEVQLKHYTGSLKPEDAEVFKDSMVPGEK

With `CN1CCCC1CCNCC(=O)N(CCc1ccc(Cl)cc1Cl)CC(=O)N(CCc1ccc(Cl)cc1Cl)CC(N)=O` (racemic) [compound [4], [N-[(R,S)-2-[2-(N-methyl)pyrrolidinyl]ethyl]glycyl]-[N-(2,4-dichlorophenethyl)glycyl]-N-(2,4-dichlorophenethyl)glycinamide] the “attenuation of the ocular irritation produced by capsaicin” value [1] was “approximately 40%” and the IC50 (VR1 nociceptor) was ~1 µM.

`CCN(CC)CCCNCC(=O)N(CCc1ccc(Cl)cc1Cl)CC(=O)N(CCC(C)C)CC(N)=O` [compound [7], [N-[3-(N,N-diethylamine)propyl]glycyl]-[N-(2,4-dichlorophenethyl)glycyl]-N-(3-methylbutyl)glycinamide] showed an IC50 (VR1 nociceptor) of ~30 µM.

`CCN(CC)CCCNCC(=O)N(CCc1ccc(Cl)cc1Cl)CC(=O)N(CCc1ccc(Cl)cc1Cl)CC(N)=O` [compound [8], [N-[3-(N,N-diethylamine)propyl]glycyl]-[N-(2,4-dichlorophenethyl)glycyl]-N-(2,4-dichlorophenethyl)glycinamide] was tested, and the “attenuation of the ocular irritation produced by capsaicin” value [1] was “approximately 20%” and the IC50 (VR1 nociceptor) was ~2 µM.

Compound `CCN(CC)CCCN(CC(=O)N(CCc1ccc(Cl)cc1Cl)CC(N)=O)C(=O)CNCCC(c1ccccc1)c1ccccc1` [compound [9]] has an IC50 [2] of 1 µM.

`CCN(CC)CCCN(CC(=O)N(CCc1ccccn1)CC(N)=O)C(=O)CNCCC(c1ccccc1)c1ccccc1` [compound [10]] was tested, and the IC50 [2] was ~2 µM.

With `CCN(CC)CCCN(CC(=O)N(CCn1ccnc1)CC(N)=O)C(=O)CNCCC(c1ccccc1)c1ccccc1` [compound [11]] the IC50 [2] was ~10 µM.
